pEC50: −log10 of the molar value.
Experiments:
Assay type in all cases: cell-based
bovine α1A receptor = target: T1, bovine α1A receptor (Bos taurus, UniProt P18130); assay: FLIPR Ca+2 influx assay, α1A
T1 construct: expressed in transfected cells; host or cells: HEK 293
T1 sequence (P18130 1-466): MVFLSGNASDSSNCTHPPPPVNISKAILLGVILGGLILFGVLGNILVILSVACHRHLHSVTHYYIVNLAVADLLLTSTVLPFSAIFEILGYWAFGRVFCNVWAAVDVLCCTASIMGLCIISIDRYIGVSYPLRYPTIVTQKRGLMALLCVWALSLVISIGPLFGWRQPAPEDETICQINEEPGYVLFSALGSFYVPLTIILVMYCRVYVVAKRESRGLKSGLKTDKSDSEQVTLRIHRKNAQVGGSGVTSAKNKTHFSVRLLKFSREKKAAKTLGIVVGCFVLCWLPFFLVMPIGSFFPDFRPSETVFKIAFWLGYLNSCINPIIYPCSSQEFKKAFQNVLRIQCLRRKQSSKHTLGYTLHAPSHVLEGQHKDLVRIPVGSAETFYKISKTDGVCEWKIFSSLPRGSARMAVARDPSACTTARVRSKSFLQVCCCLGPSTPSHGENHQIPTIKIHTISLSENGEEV
Method: (§1) The compounds disclosed herein are agonists of alpha 2B/2C adrenergic receptors. […] This assay is adequate for monitoring the intracellular Ca^2+ mobilization from fluorescent reading to evaluate receptor agonists.
(§2) FLIPR Ca+2 Influx Assay: HEK 293 cells stably expressing the bovine α1A receptor, the rat α1B receptor, the human α2A receptor and the chimeric G protein Gqi5, the human α2C receptor and the chimeric G protein Gqi5 and the mouse α2B receptor and the Gα16 protein were plated in poly-D-lysine coated 384 well plates at 15,000-25,000 cells per well and grown overnight in DMEM supplemented with 10% fetal bovine serum. For FLIPR (fluorometric image plate reader) evaluation, cells were washed 2-4 times with HBSS/HEPES Buffer (1× Hanks Buffered Salt Solution, 20 mM HEPES<pH 7.4) prior to the addition of Fluo-4-AM (4 uM Fluo-4-AM, 0.04% pluronic acid in HBSS/HEPES Buffer), a calcium-sensitive dye. Cells were loaded with Dye for 40 minutes at 30° C., then washed 4-8 times with HBSS/HEPES Buffer to remove excess dye. Cells were preincubated at 37° C. for 3 minutes prior to placement into the FLIPR instrument. The reaction was carried out at 37° C. and was initiated by the addition of the appropriate dilutions of compounds. The transient calcium was captured and the peak height of the calcium curve determined and utilized for calculation of EC50 and efficacy using ActivityBase. Data is stored in the ActivityBase database under the unique identifier “Test Occasion”, which reflects the results of an assay run on a particular date and the individual responsible for the assay. Norepinephrine was the standard full agonist for evaluating alpha1 and alpha2 receptor activity.

rat α1B receptor = target: T2, rat α1B receptor (Rattus norvegicus, UniProt P15823); assay: FLIPR Ca+2 influx assay, α1B; conditions: relative efficacy compared to standard full agonist norepinephrine; HEK 293, rat α1B
T2 construct: expressed in transfected cells; host or cells: HEK 293
T2 sequence (P15823 1-515): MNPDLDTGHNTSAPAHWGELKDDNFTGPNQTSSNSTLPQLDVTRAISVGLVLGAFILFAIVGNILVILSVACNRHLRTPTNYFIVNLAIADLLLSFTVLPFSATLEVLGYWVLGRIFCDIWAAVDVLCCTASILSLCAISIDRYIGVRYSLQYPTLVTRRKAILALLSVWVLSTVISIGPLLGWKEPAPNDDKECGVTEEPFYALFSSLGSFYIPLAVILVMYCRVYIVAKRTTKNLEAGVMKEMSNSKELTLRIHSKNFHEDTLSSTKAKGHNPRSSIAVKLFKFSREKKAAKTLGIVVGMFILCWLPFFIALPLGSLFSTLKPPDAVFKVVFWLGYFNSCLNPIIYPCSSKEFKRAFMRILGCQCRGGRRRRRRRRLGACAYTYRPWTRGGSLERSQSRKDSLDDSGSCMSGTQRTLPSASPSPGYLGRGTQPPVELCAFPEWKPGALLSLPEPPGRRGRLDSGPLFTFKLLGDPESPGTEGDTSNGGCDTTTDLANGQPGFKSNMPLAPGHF
Method: as §1, §2

human α2C receptor = target: T3, human α2C receptor (Homo sapiens, UniProt P18825); assay: FLIPR Ca+2 influx assay, α2C; conditions: relative efficacy compared to standard full agonist norepinephrine; HEK 293, human α2C/Gqi5
T3 construct: expressed in transfected cells; host or cells: HEK 293
T3 sequence (P18825 1-462): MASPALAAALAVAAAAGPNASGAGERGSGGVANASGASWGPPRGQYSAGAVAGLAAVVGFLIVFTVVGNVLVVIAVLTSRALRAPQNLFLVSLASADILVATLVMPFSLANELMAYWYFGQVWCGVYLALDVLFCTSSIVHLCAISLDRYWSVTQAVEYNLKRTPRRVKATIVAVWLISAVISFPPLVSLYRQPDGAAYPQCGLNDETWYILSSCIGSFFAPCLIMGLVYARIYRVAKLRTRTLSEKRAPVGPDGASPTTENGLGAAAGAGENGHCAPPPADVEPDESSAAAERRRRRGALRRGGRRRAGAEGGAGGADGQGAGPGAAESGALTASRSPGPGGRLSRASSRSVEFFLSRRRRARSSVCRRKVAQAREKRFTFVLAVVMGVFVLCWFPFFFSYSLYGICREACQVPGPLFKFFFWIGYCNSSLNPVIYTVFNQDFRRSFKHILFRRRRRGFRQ
Method: as §1, §2

mouse α2B receptor = target: T4, mouse α2B receptor (Mus musculus, UniProt P30545); assay: FLIPR Ca+2 influx assay, α2B
T4 construct: expressed in transfected cells; host or cells: HEK 293
T4 sequence (P30545 1-453): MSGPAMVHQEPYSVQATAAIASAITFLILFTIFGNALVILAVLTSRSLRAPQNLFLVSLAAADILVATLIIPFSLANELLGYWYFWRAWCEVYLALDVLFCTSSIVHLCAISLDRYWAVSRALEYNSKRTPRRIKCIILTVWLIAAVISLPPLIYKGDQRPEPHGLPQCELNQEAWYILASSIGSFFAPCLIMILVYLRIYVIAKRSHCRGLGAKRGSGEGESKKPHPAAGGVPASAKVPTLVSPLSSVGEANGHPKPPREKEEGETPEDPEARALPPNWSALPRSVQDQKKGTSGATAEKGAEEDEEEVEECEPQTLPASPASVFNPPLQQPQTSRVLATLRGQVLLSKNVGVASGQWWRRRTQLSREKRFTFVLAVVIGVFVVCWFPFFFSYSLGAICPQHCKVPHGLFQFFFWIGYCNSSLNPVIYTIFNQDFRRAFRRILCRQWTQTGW
Method: as §1, §2

human α2A receptor = target: T5, human α2A receptor (Homo sapiens, UniProt P08913); assay: FLIPR Ca+2 influx assay, α2A
T5 construct: expressed in transfected cells; host or cells: HEK 293
T5 sequence (P08913 1-465): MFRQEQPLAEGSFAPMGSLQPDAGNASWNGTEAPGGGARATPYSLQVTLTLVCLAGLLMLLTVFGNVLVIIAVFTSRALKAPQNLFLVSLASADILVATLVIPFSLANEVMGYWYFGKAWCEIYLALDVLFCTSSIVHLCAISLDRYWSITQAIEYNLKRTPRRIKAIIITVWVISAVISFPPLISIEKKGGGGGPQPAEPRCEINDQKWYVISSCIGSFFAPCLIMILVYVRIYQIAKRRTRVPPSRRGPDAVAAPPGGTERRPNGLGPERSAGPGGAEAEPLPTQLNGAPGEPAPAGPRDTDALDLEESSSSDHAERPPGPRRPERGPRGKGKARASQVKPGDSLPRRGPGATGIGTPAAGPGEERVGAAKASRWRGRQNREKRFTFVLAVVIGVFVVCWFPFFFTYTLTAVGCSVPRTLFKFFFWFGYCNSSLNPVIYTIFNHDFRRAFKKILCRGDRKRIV
Method: as §1, §2

In the case of `CCN(Cc1cccnc1)C1CCc2cccc(O)c2C1` (centres unmarked), the pEC50 (bovine α1A receptor; HEK 293 cells stably expressing bovine α1A receptor) was 5.40, the “Relative efficacy FLIPR α1A” value (bovine α1A receptor; relative efficacy compared to standard full agonist norepinephrine, HEK 293, bovine α1A) was 0.29 and the “Relative efficacy FLIPR α1B” value (rat α1B receptor) was “ND (0.36)”. The “Relative efficacy FLIPR α2C” value (human α2C receptor) was “ND (0.43)”, the pEC50 (mouse α2B receptor; HEK 293 cells stably expressing mouse α2B receptor and Gα16 protein) was 6.06 and the “Relative efficacy FLIPR α2B” value (mouse α2B receptor; relative efficacy compared to standard full agonist norepinephrine, HEK 293, mouse α2B/Gα16) was 0.89. For the same molecule, the pEC50 (human α2A receptor; HEK 293 cells stably expressing human α2A receptor and chimeric G protein Gqi5) was 5.35 and the “Relative efficacy FLIPR α2A” value (human α2A receptor; relative efficacy compared to standard full agonist norepinephrine, HEK 293, human α2A/Gqi5) was 0.35.
